{"source": "ChEMBL document CHEMBL5537193", "about": "“Multitargeting HDAC Inhibitors Containing a RAS/RAF Protein Interfering Unit” (J Med Chem, 2024)", "key": {"Histone deacetylase 4": {"biological_target": "Histone deacetylase 4 (Homo sapiens, UniProt P56524)", "sequence (P56524 whole entry)": "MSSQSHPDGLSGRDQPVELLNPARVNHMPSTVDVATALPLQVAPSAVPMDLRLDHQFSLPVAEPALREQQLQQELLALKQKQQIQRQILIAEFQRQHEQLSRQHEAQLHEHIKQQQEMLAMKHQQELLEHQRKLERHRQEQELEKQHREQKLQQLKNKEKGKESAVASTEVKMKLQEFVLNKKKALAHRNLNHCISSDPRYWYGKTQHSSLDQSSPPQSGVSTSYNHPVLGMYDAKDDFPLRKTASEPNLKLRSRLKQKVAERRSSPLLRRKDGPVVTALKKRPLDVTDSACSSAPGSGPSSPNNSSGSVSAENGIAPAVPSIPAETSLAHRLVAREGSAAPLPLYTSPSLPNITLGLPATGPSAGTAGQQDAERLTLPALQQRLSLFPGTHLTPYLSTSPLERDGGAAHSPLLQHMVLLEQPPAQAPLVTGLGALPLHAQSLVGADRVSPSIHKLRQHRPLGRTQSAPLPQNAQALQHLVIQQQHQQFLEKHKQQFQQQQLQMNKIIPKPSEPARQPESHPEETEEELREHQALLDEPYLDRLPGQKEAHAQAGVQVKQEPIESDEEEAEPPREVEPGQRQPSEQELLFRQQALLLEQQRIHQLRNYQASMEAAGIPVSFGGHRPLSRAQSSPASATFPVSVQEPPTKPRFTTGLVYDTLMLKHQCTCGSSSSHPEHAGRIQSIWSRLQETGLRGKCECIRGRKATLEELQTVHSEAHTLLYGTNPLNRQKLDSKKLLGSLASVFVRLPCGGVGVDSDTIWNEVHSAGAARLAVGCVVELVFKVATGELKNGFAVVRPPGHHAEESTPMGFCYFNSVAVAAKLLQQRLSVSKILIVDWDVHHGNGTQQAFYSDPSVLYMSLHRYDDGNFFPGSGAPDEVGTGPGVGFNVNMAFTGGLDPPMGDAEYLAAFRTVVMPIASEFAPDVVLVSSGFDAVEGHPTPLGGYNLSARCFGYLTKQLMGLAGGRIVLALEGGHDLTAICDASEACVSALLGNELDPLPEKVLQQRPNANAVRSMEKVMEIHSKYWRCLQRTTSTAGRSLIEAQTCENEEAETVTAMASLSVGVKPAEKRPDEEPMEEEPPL", "test": "Inhibition of HDAC4 (unknown origin)"}, "[1]": {"biological_target": "Serine/threonine-protein kinase PLK1 (Homo sapiens, UniProt P53350)", "sequence (P53350 whole entry)": "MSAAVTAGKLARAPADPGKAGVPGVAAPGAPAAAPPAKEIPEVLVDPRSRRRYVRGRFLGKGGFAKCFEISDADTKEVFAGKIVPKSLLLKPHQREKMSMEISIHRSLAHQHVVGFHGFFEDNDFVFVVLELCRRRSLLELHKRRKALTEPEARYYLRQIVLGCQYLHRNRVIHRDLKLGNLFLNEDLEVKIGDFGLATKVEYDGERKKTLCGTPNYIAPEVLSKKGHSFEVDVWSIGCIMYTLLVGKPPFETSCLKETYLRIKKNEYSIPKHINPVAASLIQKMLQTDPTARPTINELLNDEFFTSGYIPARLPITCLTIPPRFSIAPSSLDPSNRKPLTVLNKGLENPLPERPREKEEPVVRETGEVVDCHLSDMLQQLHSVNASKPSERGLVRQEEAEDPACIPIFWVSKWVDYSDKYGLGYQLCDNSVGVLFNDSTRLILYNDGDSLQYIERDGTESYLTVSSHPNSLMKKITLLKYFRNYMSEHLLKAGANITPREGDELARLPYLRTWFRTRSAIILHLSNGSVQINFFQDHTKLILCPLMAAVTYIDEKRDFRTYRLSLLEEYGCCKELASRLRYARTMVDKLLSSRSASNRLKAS", "test": "Inhibition of PLK1 (unknown origin) at 10 uM relative to control"}, "HT-29 [2]": {"tested_on": "HT-29", "test": "Cell cycle arrest in human HT-29 cells assessed as accumulation of cells at G2-M phase at 2 uM incubated for 24 hrs by PI/RNase staining based flow cytometric analysis", "assay_type": "functional"}, "HT-29 [3]": {"tested_on": "HT-29", "test": "Induction of apoptosis in human HT-29 cells assessed as apoptotic ratio at 2 uM incubated for 24 hrs by flow cytometric analysis", "assay_type": "functional"}, "HT-29 [4]": {"tested_on": "HT-29", "test": "Induction of apoptosis in human HT-29 cells incubated for 24 hrs by flow cytometric analysis", "assay_type": "functional, cell-based", "conditions": "dose 1-4 µM"}, "PANC-1 [5]": {"tested_on": "PANC-1", "test": "Induction of apoptosis in human PANC-1 cells assessed as increase in Cytochrome C expression level at 2 uM incubated for 24 hrs by Western blot analysis", "assay_type": "functional, cell-based"}, "PANC-1 [6]": {"tested_on": "PANC-1", "test": "Induction of apoptosis in human PANC-1 cells assessed as increase in cleaved caspase-3 expression level at 2 uM incubated for 24 hrs by Western blot analysis", "assay_type": "functional, cell-based"}, "[7]": {"test": "Metabolic stability in rat liver microsomes assessed as half-life at 1 uM measured upto 40 mins by LC-MS/MS analysis", "assay_type": "ADME, Microsome"}, "[8]": {"test": "Metabolic stability in mouse liver microsomes assessed as half-life at 1 uM measured upto 40 mins by LC-MS/MS analysis", "assay_type": "ADME, Microsome"}, "[9]": {"test": "Metabolic stability in mouse liver microsomes assessed as intrinsic clearance at 1 uM measured upto 40 mins by LC-MS/MS analysis", "assay_type": "ADME, Microsome", "conditions": "read-out: CLH"}, "[10]": {"test": "Cmax in Sprague-Dawley rat at 15 mg/kg, ip measured after 24 hrs by LC-MS/MS analysis", "assay_type": "ADME, organism-based", "conditions": "in vivo"}, "[11]": {"test": "AUC (0 to t) in Sprague-Dawley rat at 15 mg/kg, ip measured after 24 hrs by LC-MS/MS analysis", "assay_type": "ADME, organism-based", "conditions": "in vivo"}, "[12]": {"test": "Elimination rate constant in Sprague-Dawley rat at 15 mg/kg, ip measured after 24 hrs by LC-MS/MS analysis", "assay_type": "ADME, organism-based", "conditions": "in vivo"}, "[13]": {"test": "MRT (0 to t) in Sprague-Dawley rat at 15 mg/kg, ip measured after 24 hrs by LC-MS/MS analysis", "assay_type": "ADME, organism-based", "conditions": "in vivo"}, "[14]": {"test": "MRT (0 to infinity) in Sprague-Dawley rat at 15 mg/kg, ip measured after 24 hrs by LC-MS/MS analysis", "assay_type": "ADME, organism-based", "conditions": "in vivo"}, "HT-29 [15]": {"tested_on": "HT-29", "test": "Antitumor activity against human HT-29 xenografted in BALB/c nude mouse assessed as tumor growth inhibition at 15 mg/kg, ip administered once every 2 days for 12 times for 24 days relative to control", "assay_type": "functional", "conditions": "HT-29, 576 h, time 24 day, read-out: TGI"}, "HT-29 [16]": {"tested_on": "HT-29", "test": "Antitumor activity against human HT-29 xenografted in BALB/c nude mouse assessed as tumor growth inhibition at 7.5 mg/kg, ip administered once every 2 days for 12 times for 24 days relative to control", "assay_type": "functional", "conditions": "HT-29, 576 h, time 24 day, read-out: TGI"}, "[17]": {"test": "Toxicity in BALB/c nude mouse xenografted with human HT-29 cells assessed as change in body weight at 7.5 to 15 mg/kg, ip administered once every 2 days for 12 times for 24 days", "assay_type": "organism-based", "conditions": "in vivo, 576 h, dose 7.5-15 mg/kg, time 24 day"}, "PANC-1 [18]": {"tested_on": "PANC-1", "test": "Effect on RAS protein expression in human PANC-1 cells at 2 uM incubated for 24 hrs by Western blot analysis", "assay_type": "functional, cell-based"}, "PANC-1 [19]": {"tested_on": "PANC-1", "test": "Effect on MEK protein expression in human PANC-1 cells at 2 uM incubated for 24 hrs by Western blot analysis", "assay_type": "functional, cell-based"}, "HT-29 [20]": {"tested_on": "HT-29", "test": "Effect on MEK protein expression in human HT-29 cells at 2 uM incubated for 24 hrs by Western blot analysis", "assay_type": "functional, cell-based"}, "HT-29 [21]": {"tested_on": "HT-29", "test": "Inhibition of MAPK signaling pathway in human HT-29 cells assessed as inhibition of MEK phosphorylation at 2 uM incubated for 24 hrs by Western blot analysis", "assay_type": "cell-based"}, "HT-29 [22]": {"tested_on": "HT-29", "test": "Inhibition of MAPK signaling pathway in human HT-29 cells assessed as inhibition of ERK1/2 phosphorylation at 2 uM incubated for 24 hrs by Western blot analysis", "assay_type": "cell-based"}, "PANC-1 [23]": {"tested_on": "PANC-1", "test": "Effect on Histone H3 expression in human PANC-1 cells at 2 uM incubated for 24 hrs by Western blot analysis", "assay_type": "functional, cell-based"}, "HT-29 [24]": {"tested_on": "HT-29", "test": "Effect on Histone H3 expression in human HT-29 cells at 2 uM incubated for 24 hrs by Western blot analysis", "assay_type": "functional, cell-based"}, "Mus musculus [25]": {"tested_on": "Mus musculus", "test": "In vivo inhibition of HDAC3 in BALB/c mouse xenografted with human HT-29 cells assessed as induction of alpha-tubulin acetylation administered intraperitoneally once every 2 days for 12 times and measured after 24 days by Western blot analysis", "assay_type": "functional", "conditions": "dose 7.5-15 mg/kg, route ip, time 24.0 day"}, "Mus musculus [26]": {"tested_on": "Mus musculus", "test": "In vivo inhibition of MAPK signaling pathway in BALB/c mouse xenografted with human HT-29 cells assessed as inhibition of MEK phosphorylation administered intraperitoneally once every 2 days for 12 times and measured after 24 days by Western blot analysis", "assay_type": "functional", "conditions": "dose 7.5-15 mg/kg, route ip, time 24.0 day"}, "Mus musculus [27]": {"tested_on": "Mus musculus", "test": "In vivo inhibition of MAPK signaling pathway in BALB/c mouse xenografted with human HT-29 cells assessed as inhibition of ERK1/2 phosphorylation administered intraperitoneally once every 2 days for 12 times and measured after 24 days by Western blot analysis", "assay_type": "functional", "conditions": "dose 7.5-15 mg/kg, route ip, time 24.0 day"}, "HT-29 [28]": {"tested_on": "HT-29", "test": "Effect on MEK expression in tumor of BALB/c mouse xenografted with human HT-29 cells at 7.5 to 15 mg/kg, ip administered once every 2 days for 12 times and measured after 24 days by Western blot analysis", "assay_type": "functional, organism-based", "conditions": "Neoplasm, dose 7.5-15 mg/kg, time 24.0 day"}, "HT-29 [29]": {"tested_on": "HT-29", "test": "Effect on alpha-tubulin expression in tumor of BALB/c mouse xenografted with human HT-29 cells at 7.5 to 15 mg/kg, ip administered once every 2 days for 12 times and measured after 24 days by Western blot analysis", "assay_type": "functional, organism-based", "conditions": "Neoplasm, dose 7.5-15 mg/kg, time 24.0 day"}, "HT-29 [30]": {"tested_on": "HT-29", "test": "Antitumor activity against human HT-29 cells xenografted in BALB/c nude mouse assessed as tumor growth inhibition at 7.5 mg/kg, ip administered once a day for 24 days relative to control", "assay_type": "functional", "conditions": "HT-29, 576 h, time 24 day, read-out: TGI"}, "[31]": {"test": "Toxicity in BALB/c nude mouse xenografted with human HT-29 cells assessed as change in heart histopathology at 10 to 15 mg/kg, ip administered once daily for 24 days by H&E staining based analysis", "assay_type": "organism-based", "conditions": "in vivo, 576 h, dose 10-15 mg/kg, time 24 day"}, "[32]": {"test": "Toxicity in BALB/c nude mouse xenografted with human HT-29 cells assessed as change in spleen histopathology at 10 to 15 mg/kg, ip administered once daily for 24 days by H&E staining based analysis", "assay_type": "organism-based", "conditions": "in vivo, 576 h, dose 10-15 mg/kg, time 24 day"}, "A549": {"tested_on": "A549", "test": "cells", "conditions": "Homo sapiens, A549, 72 h", "description": "Cytotoxicity against human A549 cells assessed as inhibition of cell growth incubated for 72 hrs by MTT assay"}, "NCI-H1975": {"tested_on": "NCI-H1975", "test": "cells", "conditions": "Homo sapiens, NCI-H1975, 72 h", "description": "Cytotoxicity against human NCI-H1975 cells assessed as inhibition of cell growth incubated for 72 hrs by MTT assay"}, "SGC-7901": {"tested_on": "SGC-7901", "test": "cells", "conditions": "Homo sapiens, SGC-7901, 72 h", "description": "Cytotoxicity against human SGC-7901 cells assessed as inhibition of cell growth incubated for 72 hrs by MTT assay"}, "MCF7": {"tested_on": "MCF7", "test": "cells", "conditions": "Homo sapiens, MCF7, 72 h", "description": "Cytotoxicity against human MCF7 cells assessed as inhibition of cell growth incubated for 72 hrs by MTT assay"}, "PANC-1 [33]": {"tested_on": "PANC-1", "test": "cells", "conditions": "Homo sapiens, PANC-1, 72 h", "description": "Cytotoxicity against human PANC-1 cells assessed as inhibition of cell growth incubated for 72 hrs by MTT assay"}, "HT-29 [34]": {"tested_on": "HT-29", "test": "cells", "conditions": "Homo sapiens, HT-29, 72 h", "description": "Cytotoxicity against human HT-29 cells assessed as inhibition of cell growth incubated for 72 hrs by MTT assay"}}, "note": "Calls of active or inactive are those of the source. The rule behind the calls is not given here."}
{"smiles": "COc1cc(OC)c(/C=C/S(=O)(=O)Cc2ccc(OC)c(NCC(=O)NO)c2)c(OC)c1", "values": [{"measurement": "IC50", "setting": "Histone deacetylase 4", "result": 0.0751, "unit": "µM"}, {"measurement": "inhibition", "setting": "[1]", "result": 100, "unit": "%"}, {"measurement": "Activity", "setting": "HT-29 [2]", "result": "Active"}, {"measurement": "Activity", "setting": "HT-29 [3]", "result": 51.5, "unit": "%"}, {"measurement": "Activity", "setting": "HT-29 [4]", "result": "Dose-Dependent Effect"}, {"measurement": "Activity", "setting": "PANC-1 [5]", "result": "Active"}, {"measurement": "Activity", "setting": "PANC-1 [6]", "result": "Active"}, {"measurement": "half-life at 1 µM", "setting": "[7]", "result": 5.52, "unit": "min"}, {"measurement": "half-life at 1 µM", "setting": "[8]", "result": 28.6, "unit": "min"}, {"measurement": "CLint scaled at 1 µM", "setting": "[9]", "result": 191, "unit": "mL/min/kg"}, {"measurement": "Cmax", "setting": "[10]", "result": 2800, "unit": "ng/mL"}, {"measurement": "AUC(0-t) at 24 h", "setting": "[11]", "result": 5190, "unit": "ng·h/mL"}, {"measurement": "k el at 24 h", "setting": "[12]", "result": 0.000252, "unit": "s⁻¹"}, {"measurement": "MRT last at 24 h", "setting": "[13]", "result": 80.4, "unit": "min"}, {"measurement": "MRT inf", "setting": "[14]", "result": 80.4, "unit": "min"}, {"measurement": "inhibition in vivo at 15 mg/kg", "setting": "HT-29 [15]", "result": 75.2, "unit": "%"}, {"measurement": "inhibition in vivo at 7.5 mg/kg", "setting": "HT-29 [16]", "result": 64.3, "unit": "%"}, {"measurement": "Activity", "setting": "[17]", "result": "Non-Toxic"}, {"measurement": "Activity", "setting": "PANC-1 [18]", "result": "inactive"}, {"measurement": "Activity", "setting": "PANC-1 [19]", "result": "inactive"}, {"measurement": "Activity", "setting": "HT-29 [20]", "result": "inactive"}, {"measurement": "inhibition", "setting": "HT-29 [21]", "result": "Active"}, {"measurement": "inhibition", "setting": "HT-29 [22]", "result": "Active"}, {"measurement": "Activity", "setting": "PANC-1 [23]", "result": "inactive"}, {"measurement": "Activity", "setting": "HT-29 [24]", "result": "inactive"}, {"measurement": "inhibition", "setting": "Mus musculus [25]", "result": "Dose-Dependent Effect"}, {"measurement": "inhibition", "setting": "Mus musculus [26]", "result": "Dose-Dependent Effect"}, {"measurement": "inhibition", "setting": "Mus musculus [27]", "result": "Dose-Dependent Effect"}, {"measurement": "Activity", "setting": "HT-29 [28]", "result": "inactive"}, {"measurement": "Activity", "setting": "HT-29 [29]", "result": "inactive"}, {"measurement": "inhibition in vivo at 7.5 mg/kg", "setting": "HT-29 [30]", "result": 70.1, "unit": "%"}, {"measurement": "Activity", "setting": "[31]", "result": "Non-Toxic"}, {"measurement": "Activity", "setting": "[32]", "result": "Non-Toxic"}, {"measurement": "IC50", "setting": "A549", "result": 0.09, "unit": "µM"}, {"measurement": "IC50", "setting": "NCI-H1975", "result": 0.05, "unit": "µM"}, {"measurement": "IC50", "setting": "SGC-7901", "result": 0.17, "unit": "µM"}, {"measurement": "IC50", "setting": "MCF7", "result": 0.24, "unit": "µM"}, {"measurement": "IC50", "setting": "PANC-1 [33]", "result": 0.05, "unit": "µM"}, {"measurement": "IC50", "setting": "HT-29 [34]", "result": 0.04, "unit": "µM"}]}
